Laboratory results: patent US20060205599A1, “Herbicide combinations comprising specific sulfonamides” (Bayer CropScience GmbH, priority 2003, published 2006)

Columns and labels:
Veronica hederifolia = assay: Herbicidal action (field trials), visual scoring of harmful plant; assay type: in vivo; details: field trial, natural outdoor conditions; visual score about 4 weeks after application vs untreated control (100% = all plants died), mean of 2-4 plots; application rate g of active substance/hectare: A 5, B 30, C 250, A + B 5 + 30, A + B + C 5 + 30 + 250
Procedure: The seeds or rhizome pieces of the harmful plants and the useful plants were laid out or were present in the soil, and they were grown under natural outdoor conditions. Treatment with the active compounds or active compound combinations was carried out […] before and/or after the emergence of the plants, generally at the 2- to 4-leaf stage, in various dosages using a water application rate of 100 to 400 l/ha (converted).
After the application (about 4 weeks after the application), the effectiveness of the active compounds or active compound combinations was scored visually by comparing the treated plots to untreated control plants. During scoring, damage and development of all above-ground parts of plants was assessed. Scoring was carried out using a percentage scale (100% effect=all plants had died; 50% effect=50% of the plants and the green parts of the plants have died; 0% effect=no effect observed=like control plant). In each case, the mean score of 2-4 plots was calculated.
The results are shown in the table below; the effect of the individual application of active compounds (A+B) and C being stated in brackets.

Triticum aestivum = assay type: in vivo; details: field trial, natural outdoor conditions; visual score about 4 weeks after application vs untreated control, mean of 2-4 plots; application rate g of active substance/hectare: A 5, B 30, C 250, A + B 5 + 30, A + B + C 5 + 30 + 250
Procedure: The seeds or rhizome pieces of the harmful plants and the useful plants were laid out or were present in the soil, and they were grown under natural outdoor conditions.
During scoring, damage and development of all above-ground parts of plants was assessed. […] In each case, the mean score of 2-4 plots was calculated.

How did the “Veronica hederifolia % effect” value (Veronica hederifolia) turn out when COC(=O)c1ccc(CNS(C)(=O)=O)cc1S(=O)(=O)NC(=O)Nc1nc(OC)cc(OC)n1 [mesosulfuron-methyl, methyl 2-[3-(4,6-dimethoxypyrimidin-2-yl)ureidosulfonyl]-4-methanesulfonaminomethyl-benzoate] was run?
The value was 7%.

And the “Triticum aestivum % damage” value (Triticum aestivum)?
Its value is 2%.

For Cc1cc(Cl)ccc1O[C@H](C)C(=O)O [mecoprop-P, (R)-2-(4-chloro-o-tolyloxy)propionic acid], which “Veronica hederifolia % effect” value (Veronica hederifolia) is on record?
Its value is 35%.

And the “Triticum aestivum % damage” value (Triticum aestivum)?
Its value is 0%.

Which results are given for CCCOc1nn(C(=O)[N-]S(=O)(=O)c2ccccc2C(=O)OC)c(=O)n1C.[Na+] [propoxycarbazone-sodium]?
Veronica hederifolia % effect (Veronica hederifolia): 30%; Triticum aestivum % damage (Triticum aestivum): 3%
